Data as given in paper PMC8151276, “An Integrated Approach toward NanoBRET Tracers for Analysis of GPCR Ligand Engagement” (Molecules, 2021).

Legend:
Format in all cases: binding
CCR3 = biological target: T1, CCR3 (Homo sapiens, UniProt P51677); test: NanoBRET screen HiBiT-CCR3 in HEK293
T1 construct: purchased Promega (in-house HiBiT-GPCR construct library, NanoBRET)
T1 sequence (P51677 1-355): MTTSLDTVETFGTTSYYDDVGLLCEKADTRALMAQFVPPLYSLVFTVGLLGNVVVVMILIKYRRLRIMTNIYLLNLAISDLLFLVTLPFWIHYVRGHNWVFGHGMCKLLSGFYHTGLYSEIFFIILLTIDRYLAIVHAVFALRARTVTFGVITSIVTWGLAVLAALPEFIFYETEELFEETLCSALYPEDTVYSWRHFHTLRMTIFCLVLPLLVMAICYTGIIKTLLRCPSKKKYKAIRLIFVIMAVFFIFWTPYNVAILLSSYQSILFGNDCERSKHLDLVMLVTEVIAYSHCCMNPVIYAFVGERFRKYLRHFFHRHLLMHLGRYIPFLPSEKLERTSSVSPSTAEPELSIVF
Protocol: (§1) Each tracer candidate was screened across the entire library of HiBiT-GPCR constructs using NanoBRET as the detection modality. As depicted in Figure 4A, the specificity of interactions was evaluated through decrease in BRET due to competitive displacement of a bound tracer by excess parental compound. Each tracer was analyzed for binding to each HiBiT-GPCR fusion in the absence and in the presence of competing parental compound. Briefly, HEK293 cells were transfected with HiBiT-GPCR constructs diluted into promoterless DNA to reduce expression and maximize translocation to the cell surface. Each tracer candidate was then screened at concentrations of 1 μM and 0.1 μM across cells expressing these fusions. Cells were treated for 1.5 h with tracer either alone or in the presence of 20 μM competing parental compound (i.e., control). BRET was measured upon addition of purified LgBiT and subsequent complementation with HiBiT genetically fused to a GPCR. The specificity of interactions was assessed through a decrease in BRET signal due to competitive displacement of the bound tracer. To further gauge the robustness of these interactions, the fold response over the control (i.e., BRETtracer/BRETcontrol) was calculated. We chose a 1.5-fold response, which translates to ≥7-fold signal over noise as the minimal threshold required to score an interaction as positive. […]. Below we highlight the screening results obtained for our exemplary fluorescent tracers based on Clozapine, Amitriptyline and AZD1283.
(§2) HiBiT-GPCR DNA constructs were diluted in 10 mM Tris pH 8 to a final concentration of 0.01 μg/μL, arrayed in 96-well plates and stored at −20 °C. For transfection, HEK293 cells were suspended in Opti-MEM (without phenol red) supplemented with 2% fetal bovine serum (Seradigm) and 100 units/mL penicillin–streptomycin (Gibco) at a final concentration of 220,000 cells/mL and dispensed into white 96-well plates at 90 μL/well. Subsequent transfections and screens were carried using an Agilent Bravo Automated Liquid Handling Platform. First, the 96-well HiBiT DNA arrays were diluted 25-fold in Opti-MEM (without serum or phenol red) to a final concentration of 0.0004 μg/μL and 20 μL of the diluted DNAs were transferred into new 96-well plates. Next, promoterless carrier DNA (1 μg/μL) was diluted 25-fold (0.04 μg/μL) and then dispensed into the diluted arrays at 20 μL/well. Following brief mixing, Viafect transfection reagent (Promega) diluted 16-fold into Opti-MEM was dispensed into the plates at 40 μL/well. After mixing by pipetting, plates were incubated for 10 min on the pipetting station deck. The DNA-transfection reagent complexes were then added to plates containing cells. To facilitate the screen, 10 μL of DNA-transfection reagent complexes were added in duplicates to the top 4 and bottom 4 rows, resulting in two identical 48-well arrays per plate. Plates with transfected cells were incubated for 18–20 h at 37 °C/5% CO2. A screen of each tracer across the entire library using two different concentrations requires duplicate plates of transfected cells. Depending on the number of tracers being screened, transfections can be scaled up using the same ratios. The next day, for each tracer, four 20× screening solutions in tracer dilution buffer (Promega) were prepared: two duplicates at final concentration of 20 μM and two duplicates at a final concentration of 2 μM. A competing unmodified compound was added to one of each duplicate at a final concentration of 400 μM. The four resulting solutions were diluted 4-fold in Opti-MEM without serum or phenol red to generate 5× solutions (5 µM and 0.5 µM tracer +/− 100 μM competing compound). To screen the library, a BioTek MultiFlo FX liquid dispenser was used to dispense 22.5 µL of tracer solution to the top 4 rows and 22.5 µL tracer + competing compound solution to the 4 bottom rows. Plates were briefly mixed on an orbital shaker and incubated for 1.5 h at room temperature. […]

RXFP3 = biological target: T2, RXFP3 (Homo sapiens, UniProt Q9NSD7); test: NanoBRET screen HiBiT-RXFP3 in HEK293
T2 construct: purchased Promega (in-house HiBiT-GPCR construct library, NanoBRET)
T2 sequence (Q9NSD7 1-469): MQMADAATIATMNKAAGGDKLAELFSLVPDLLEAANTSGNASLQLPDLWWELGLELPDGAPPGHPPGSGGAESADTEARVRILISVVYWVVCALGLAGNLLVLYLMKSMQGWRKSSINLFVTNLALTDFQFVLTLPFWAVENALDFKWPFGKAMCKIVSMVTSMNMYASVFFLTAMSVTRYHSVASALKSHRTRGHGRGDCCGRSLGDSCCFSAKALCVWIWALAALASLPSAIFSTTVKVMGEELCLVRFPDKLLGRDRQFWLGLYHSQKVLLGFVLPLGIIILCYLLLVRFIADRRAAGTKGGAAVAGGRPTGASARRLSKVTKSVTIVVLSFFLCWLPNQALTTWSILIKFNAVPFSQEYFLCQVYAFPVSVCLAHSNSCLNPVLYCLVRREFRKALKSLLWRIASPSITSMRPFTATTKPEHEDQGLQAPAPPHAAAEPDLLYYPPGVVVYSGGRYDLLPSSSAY
Protocol: as §1, §2

HTR4 = biological target: T3, HTR4 (Homo sapiens, UniProt Q13639); test: NanoBRET screen HiBiT-HTR4 in HEK293; conditions: HTR4
T3 construct: purchased Promega (in-house HiBiT-GPCR construct library, NanoBRET)
T3 sequence (Q13639 whole entry): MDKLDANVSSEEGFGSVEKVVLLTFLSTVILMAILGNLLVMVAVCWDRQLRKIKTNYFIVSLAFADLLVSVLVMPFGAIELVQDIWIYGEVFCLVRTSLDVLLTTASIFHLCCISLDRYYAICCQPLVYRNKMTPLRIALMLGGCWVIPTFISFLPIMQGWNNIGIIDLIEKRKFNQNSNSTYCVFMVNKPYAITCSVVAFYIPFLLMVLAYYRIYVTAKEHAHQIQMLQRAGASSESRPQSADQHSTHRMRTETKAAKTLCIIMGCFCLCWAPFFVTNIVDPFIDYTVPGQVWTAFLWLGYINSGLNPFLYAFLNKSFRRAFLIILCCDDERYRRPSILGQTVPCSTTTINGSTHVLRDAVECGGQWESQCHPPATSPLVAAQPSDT
Protocol: as §1, §2

CCR5 = biological target: T4, CCR5 (Homo sapiens, UniProt P51681); test: NanoBRET screen HiBiT-CCR5 in HEK293
T4 construct: purchased Promega (in-house HiBiT-GPCR construct library, NanoBRET)
T4 sequence (P51681 whole entry): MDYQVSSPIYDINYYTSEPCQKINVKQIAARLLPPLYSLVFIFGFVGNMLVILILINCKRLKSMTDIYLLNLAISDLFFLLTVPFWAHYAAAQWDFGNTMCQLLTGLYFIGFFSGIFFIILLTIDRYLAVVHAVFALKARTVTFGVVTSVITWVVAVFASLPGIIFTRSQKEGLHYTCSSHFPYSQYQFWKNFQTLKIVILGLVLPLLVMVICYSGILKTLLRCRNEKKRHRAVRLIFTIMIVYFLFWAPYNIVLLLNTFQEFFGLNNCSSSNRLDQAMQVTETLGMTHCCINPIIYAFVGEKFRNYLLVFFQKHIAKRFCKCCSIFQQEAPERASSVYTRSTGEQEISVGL
Protocol: as §1, §2

AVPR2 = biological target: T5, AVPR2 (Homo sapiens, UniProt P30518); test: NanoBRET screen HiBiT-AVPR2 in HEK293
T5 construct: purchased Promega (in-house HiBiT-GPCR construct library, NanoBRET)
T5 sequence (P30518 whole entry): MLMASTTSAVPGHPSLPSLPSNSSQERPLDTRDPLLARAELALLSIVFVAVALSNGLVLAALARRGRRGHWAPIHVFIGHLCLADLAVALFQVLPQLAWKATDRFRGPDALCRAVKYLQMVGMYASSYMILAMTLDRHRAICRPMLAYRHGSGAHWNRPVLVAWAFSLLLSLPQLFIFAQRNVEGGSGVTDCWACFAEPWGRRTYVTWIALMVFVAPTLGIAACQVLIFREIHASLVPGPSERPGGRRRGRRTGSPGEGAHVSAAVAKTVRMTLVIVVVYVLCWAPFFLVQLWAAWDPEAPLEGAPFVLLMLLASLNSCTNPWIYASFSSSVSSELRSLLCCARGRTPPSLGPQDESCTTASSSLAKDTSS
Protocol: as §1, §2

O=C(CCOCCOCCOCCOCCNC(=O)CCc1ccc2n1[B-](F)(F)[N+]1=C(c3ccc[nH]3)C=CC1=C2)NCCCN1CCN(C2=Nc3ccccc3Oc3ccc(Cl)cc32)CC1 [Loxapine-a-2-NB590]
NanoBRET Fold Response (CCR3; CCR3, tracer 0.1μM): 1.02 | NanoBRET Fold Response (CCR3; CCR3, tracer 1μM): 1.02 | NanoBRET Fold Response (RXFP3; RXFP3, tracer 0.1μM): 1.11 | NanoBRET Fold Response (RXFP3; RXFP3, tracer 1μM): 1.22 | NanoBRET Fold Response (HTR4; tracer 0.1μM): 1.02 | NanoBRET Fold Response (HTR4; tracer 1μM): 1.04 | NanoBRET Fold Response (CCR5; CCR5, tracer 0.1μM): 1.00 | NanoBRET Fold Response (CCR5; CCR5, tracer 1μM): 1.34 | NanoBRET Fold Response (AVPR2; AVPR2, tracer 0.1μM): 1.04 | NanoBRET Fold Response (AVPR2; AVPR2, tracer 1μM): 1.05

CCCn1c(=O)c2[nH]c(-c3ccc(OCC(=O)NCCNC(=O)CCOCCNC(=O)c4ccc(CNC(=O)CCc5ccc6n5[B-](F)(F)[N+]5=C(c7ccc[nH]7)C=CC5=C6)cc4)cc3)nc2n(CCC)c1=O [XAC-3-NB590]
NanoBRET Fold Response (CCR3; CCR3, tracer 0.1μM): 1.28 | NanoBRET Fold Response (CCR3; CCR3, tracer 1μM): 0.79 | NanoBRET Fold Response (RXFP3; RXFP3, tracer 0.1μM): 0.95 | NanoBRET Fold Response (RXFP3; RXFP3, tracer 1μM): 0.92 | NanoBRET Fold Response (HTR4; tracer 0.1μM): 1.03 | NanoBRET Fold Response (HTR4; tracer 1μM): 1.09 | NanoBRET Fold Response (CCR5; CCR5, tracer 0.1μM): 0.83 | NanoBRET Fold Response (CCR5; CCR5, tracer 1μM): 0.86 | NanoBRET Fold Response (AVPR2; AVPR2, tracer 0.1μM): 0.73 | NanoBRET Fold Response (AVPR2; AVPR2, tracer 1μM): 0.91

CN(C)CCC=C1c2ccccc2CCc2ccc(C(=O)NCCNC(=O)CCOCCOCCOCCOCCNC(=O)CCc3ccc4n3[B-](F)(F)[N+]3=C(c5ccc[nH]5)C=CC3=C4)cc21 [Amitriptyline-a-2-NB590]
NanoBRET Fold Response (CCR3; tracer at 0.1μM): 1.02 | NanoBRET Fold Response (CCR3; tracer at 1μM): 0.95 | NanoBRET Fold Response (RXFP3; tracer at 0.1μM): 0.97 | NanoBRET Fold Response (RXFP3; tracer at 1μM): 0.99 | NanoBRET Fold Response (CCR5; tracer at 0.1μM): 0.99 | NanoBRET Fold Response (CCR5; tracer at 1μM): 1.01 | NanoBRET Fold Response (AVPR2; tracer at 0.1μM): 0.95 | NanoBRET Fold Response (AVPR2; tracer at 1μM): 1.05

COc1ccccc1N1CCN(CCCCN2C(=O)c3ccc(CNC(=O)CCOCCOCCOCCOCCNC(=O)CCc4ccc5n4[B-](F)(F)[N+]4=C(c6ccc[nH]6)C=CC4=C5)cc3C2=O)CC1 [NAN-190-2-NB590]
NanoBRET Fold Response (CCR3; CCR3, tracer 0.1μM): 1.08 | NanoBRET Fold Response (CCR3; CCR3, tracer 1μM): 1.11 | NanoBRET Fold Response (RXFP3; RXFP3, tracer 0.1μM): 1.02 | NanoBRET Fold Response (CCR5; CCR5, tracer 0.1μM): 0.95 | NanoBRET Fold Response (CCR5; CCR5, tracer 1μM): 1.03 | NanoBRET Fold Response (AVPR2; AVPR2, tracer 0.1μM): 1.00 | NanoBRET Fold Response (AVPR2; AVPR2, tracer 1μM): 0.98

O=C(CCc1ccc2n1[B-](F)(F)[N+]1=C(c3ccc[nH]3)C=CC1=C2)NCc1ccc(C(=O)NCCOCCOCCNCC(O)COc2cccc3ccccc23)cc1 (centres unmarked) [Propranolol-3-NB590]
NanoBRET Fold Response (CCR3; CCR3, 0.1μM): 1.04 | NanoBRET Fold Response (CCR3; CCR3, 1μM): 1.01 | NanoBRET Fold Response (RXFP3; RXFP3, 0.1μM): 1.14 | NanoBRET Fold Response (RXFP3; RXFP3, 1μM): 1.08 | NanoBRET Fold Response (HTR4; 0.1μM): 1.26 | NanoBRET Fold Response (HTR4; 1μM): 1.41 | NanoBRET Fold Response (CCR5; CCR5, 0.1μM): 1.09 | NanoBRET Fold Response (CCR5; CCR5, 1μM): 0.96 | NanoBRET Fold Response (AVPR2; AVPR2, 0.1μM): 1.00 | NanoBRET Fold Response (AVPR2; AVPR2, 1μM): 1.00

CN(CCC=C1c2ccccc2CCc2ccccc21)C(=O)CCOCCOCCOCCOCCNC(=O)CCc1ccc2n1[B-](F)(F)[N+]1=C(c3ccc[nH]3)C=CC1=C2 [Amitriptyline-e-2-NB590]
NanoBRET Fold Response (CCR3; tracer at 1μM): 0.86 | NanoBRET Fold Response (CCR5; tracer at 1μM): 0.97 | NanoBRET Fold Response (AVPR2; tracer at 1μM): 0.99

N#CN/C(=N\CCNC(=O)c1ccc(N)cc1)NCCCOc1cccc(CN2CCCCC2)c1 [Aminopotentidine (unmodified)]
NanoBRET Fold Response (HTR4; other tracers/Aminopotentidine (unmodified), 0.1μM): 1.01 | NanoBRET Fold Response (HTR4; other tracers/Aminopotentidine (unmodified), 1μM): 1.19
